Measured values reported in patent publication US12398132B2, “Derivatives of 4-(imidazo[1,2-a]pyridin-3-yl)-n-(pyridinyl)pyrimidin-2-amine as therapeutic agents” (AUCENTRA THERAPEUTICS PTY LTD, priority 2019, dated 2025).
Changes are numbered by the printed parent chain. Where two headings read alike, the source gives them in different places.

Assays:
U937 = assay: Proliferation assay (resazurin/MTT), U937; type: cell-based; conditions: Homo sapiens, U-937, read-out: 72 h Growth inhibition GI50, U937 cells
CDK9/CyclinT1 = CDK9/CyclinT1 (Homo sapiens, UniProt P50750); assay: ADP Glo kinase assay, CDK9/CyclinT1; type: biochemical; conditions: CDK9T1; for Ki: apparent Ki calculated from Km (ATP) and IC50, read-out: CDK inhibition Ki; for remaining activity at 10 µM: compound at 10 μM, read-out: residual enzymatic activity (%) at 10 μM
Method: (§1) Inhibition of FLT3(WT), FLT3(ITD) and FLT3(D835Y) and CDKs were determined using ADP Glo Kinase assays (Promega Corporation, Madison, WI, USA). […] Similarly, kinase reaction for CDK4/D1 and CDK6/D3 was performed with reaction buffer (40 nM Tris base pH 7.5, 20 mM MgCl2, 0.4 mM DTT), 0.1 mg/ml BSA and RB-CTF substrate (retinoblastoma protein1 C-terminal fraction). For CDK9/CyclinT1, the kinase reaction was performed with the standard assay buffer and Kinase Dilution Buffer and RBER-IRStide substrate. Half-maximal inhibition (IC50) values were calculated using a 4-parameter logistic non-linear regression model with Graphpad prism (Version 6.0). Apparent inhibition constants (Ki) values were calculated from Km (ATP) and IC50 values for the respective kinases.

CDK2E1 = CDK2E1 (Homo sapiens, UniProt P24941)
CDK6/D3 = CDK6/D3 (Homo sapiens, UniProt Q00534); assay: ADP Glo kinase assay, CDK6/D3; type: biochemical; conditions: CDK6D3; for Ki: apparent Ki calculated from Km (ATP) and IC50, read-out: CDK inhibition Ki; for remaining activity at 10 µM: compound at 10 μM, read-out: residual enzymatic activity (%) at 10 μM; for remaining activity at 1 µM: compound at 1 μM (values marked *), read-out: residual enzymatic activity (%) at 1 μM*
MV-4-11 = assay: Proliferation assay (resazurin/MTT), MV-4-11; type: cell-based; conditions: Homo sapiens, MV4-11, read-out: 72 h Growth inhibition GI50, MV-4-11 cells
CDK4/D1 = CDK4/D1 (Homo sapiens, UniProt P11802); assay: ADP Glo kinase assay, CDK4/D1; type: biochemical; conditions: CDK4D1; for Ki: apparent Ki calculated from Km (ATP) and IC50, read-out: CDK inhibition Ki; for remaining activity at 10 µM: compound at 10 μM, read-out: residual enzymatic activity (%) at 10 μM; for remaining activity at 1 µM: compound at 1 μM (values marked *), read-out: residual enzymatic activity (%) at 1 μM*
Method: as §1

CDK1B [1] = molecular target: T1, CDK1B (Homo sapiens, UniProt P06493); assay: biochemical
CDK7HMAT1 [2] = molecular target: T2, CDK7HMAT1 (Homo sapiens, UniProt P50613);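 note: kinase activity measured with an ADP-Glo luminescent kinase assay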
FLT3(D835Y) = molecular target: T3, FLT3(D835Y) (Homo sapiens, UniProt P36888, D835Y); assay: ADP Glo kinase assay, FLT3(D835Y); type: biochemical; conditions: apparent Ki calculated from Km (ATP) and IC50, read-out: FLT3 inhibition Ki
T3 sequence (P36888 27-993 D835Y): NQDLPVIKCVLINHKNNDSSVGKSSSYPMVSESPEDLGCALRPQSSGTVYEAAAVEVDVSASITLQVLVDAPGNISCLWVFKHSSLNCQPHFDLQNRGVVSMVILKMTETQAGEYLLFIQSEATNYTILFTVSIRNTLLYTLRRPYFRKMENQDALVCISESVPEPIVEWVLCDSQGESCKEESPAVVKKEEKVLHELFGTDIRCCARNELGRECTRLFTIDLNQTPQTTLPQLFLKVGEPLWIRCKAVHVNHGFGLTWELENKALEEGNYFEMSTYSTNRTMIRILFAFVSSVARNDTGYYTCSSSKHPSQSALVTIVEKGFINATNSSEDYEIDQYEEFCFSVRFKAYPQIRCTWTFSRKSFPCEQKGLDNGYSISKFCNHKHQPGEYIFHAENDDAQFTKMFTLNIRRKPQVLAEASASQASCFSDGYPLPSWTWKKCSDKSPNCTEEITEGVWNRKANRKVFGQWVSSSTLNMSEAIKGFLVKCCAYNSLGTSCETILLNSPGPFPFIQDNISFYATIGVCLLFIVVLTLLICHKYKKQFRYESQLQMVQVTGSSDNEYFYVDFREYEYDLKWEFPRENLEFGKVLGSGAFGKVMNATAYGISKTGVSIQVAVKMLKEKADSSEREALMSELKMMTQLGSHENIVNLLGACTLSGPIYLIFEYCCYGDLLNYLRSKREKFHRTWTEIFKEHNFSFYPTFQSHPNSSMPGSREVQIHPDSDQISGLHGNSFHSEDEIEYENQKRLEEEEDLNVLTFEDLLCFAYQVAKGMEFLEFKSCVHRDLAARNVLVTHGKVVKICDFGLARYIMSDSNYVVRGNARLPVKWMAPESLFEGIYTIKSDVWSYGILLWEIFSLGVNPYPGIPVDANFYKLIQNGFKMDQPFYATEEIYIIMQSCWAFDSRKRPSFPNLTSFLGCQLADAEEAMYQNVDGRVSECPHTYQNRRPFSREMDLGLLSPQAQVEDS
Method: (§2) Inhibition of FLT3(WT), FLT3(ITD) and FLT3(D835Y) and CDKs were determined using ADP Glo Kinase assays (Promega Corporation, Madison, WI, USA). […] The kinase reactions are run for an optimised time period (FLT3-WT: 120 min, FLT3-ITD: 80 min, FLT3-D835Y: 100 min) at room temperature and then the reaction was stopped by adding 5 μL of ADP Glo reagent. […] Positive and negative controls were performed in 0.5% DMSO in the presence and absence of each FLT3 kinase, respectively. […] Half-maximal inhibition (IC50) values were calculated using a 4-parameter logistic non-linear regression model with Graphpad prism (Version 6.0). Apparent inhibition constants (Ki) values were calculated from Km (ATP) and IC50 values for the respective kinases.

FLT3(ITD) = molecular target: T4, FLT3(ITD) (Homo sapiens, UniProt P36888); assay: ADP Glo kinase assay, FLT3(ITD); type: biochemical; conditions: apparent Ki calculated from Km (ATP) and IC50, read-out: FLT3 inhibition Ki
T4 sequence (P36888 1-993): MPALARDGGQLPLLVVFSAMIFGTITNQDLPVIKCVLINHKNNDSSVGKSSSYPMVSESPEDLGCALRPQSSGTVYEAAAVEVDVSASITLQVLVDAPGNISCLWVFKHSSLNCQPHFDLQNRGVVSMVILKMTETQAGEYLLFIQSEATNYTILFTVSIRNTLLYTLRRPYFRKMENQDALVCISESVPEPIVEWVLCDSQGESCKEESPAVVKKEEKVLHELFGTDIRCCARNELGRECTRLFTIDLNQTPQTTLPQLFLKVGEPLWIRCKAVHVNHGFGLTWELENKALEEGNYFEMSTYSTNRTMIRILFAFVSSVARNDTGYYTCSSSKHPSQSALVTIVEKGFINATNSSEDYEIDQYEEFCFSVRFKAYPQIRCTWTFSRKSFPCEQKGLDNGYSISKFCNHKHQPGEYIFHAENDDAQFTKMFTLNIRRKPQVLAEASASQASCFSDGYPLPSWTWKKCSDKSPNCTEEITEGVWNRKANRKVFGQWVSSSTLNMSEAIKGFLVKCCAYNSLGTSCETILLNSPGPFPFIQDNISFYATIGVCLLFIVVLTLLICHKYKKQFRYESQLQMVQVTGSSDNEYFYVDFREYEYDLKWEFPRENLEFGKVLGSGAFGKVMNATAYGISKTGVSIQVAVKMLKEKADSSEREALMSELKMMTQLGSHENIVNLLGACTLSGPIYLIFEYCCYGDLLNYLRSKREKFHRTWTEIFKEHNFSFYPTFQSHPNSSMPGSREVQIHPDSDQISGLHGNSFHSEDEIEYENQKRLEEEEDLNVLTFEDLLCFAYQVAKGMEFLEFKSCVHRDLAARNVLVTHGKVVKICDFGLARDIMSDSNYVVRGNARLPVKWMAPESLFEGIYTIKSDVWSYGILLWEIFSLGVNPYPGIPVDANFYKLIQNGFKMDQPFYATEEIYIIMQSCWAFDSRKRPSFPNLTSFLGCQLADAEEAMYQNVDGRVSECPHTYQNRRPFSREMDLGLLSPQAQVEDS

FLT3(WT) = molecular target: T5, FLT3(WT) (Homo sapiens, UniProt P36888); assay: ADP Glo kinase assay, FLT3(WT); type: biochemical; conditions: for Ki: apparent Ki calculated from Km (ATP) and IC50, read-out: FLT3 inhibition Ki
T5 sequence (P36888 27-993): T3 sequence (P36888 27-993 D835Y) with Y809D
Method: as §2

CDK1B [3] = molecular target: T1, CDK1B
CDK7HMAT1 [4] = molecular target: T2, CDK7HMAT1; assay: biochemical

Sequence of CDK9/CyclinT1 (P50750 whole entry, species assumed): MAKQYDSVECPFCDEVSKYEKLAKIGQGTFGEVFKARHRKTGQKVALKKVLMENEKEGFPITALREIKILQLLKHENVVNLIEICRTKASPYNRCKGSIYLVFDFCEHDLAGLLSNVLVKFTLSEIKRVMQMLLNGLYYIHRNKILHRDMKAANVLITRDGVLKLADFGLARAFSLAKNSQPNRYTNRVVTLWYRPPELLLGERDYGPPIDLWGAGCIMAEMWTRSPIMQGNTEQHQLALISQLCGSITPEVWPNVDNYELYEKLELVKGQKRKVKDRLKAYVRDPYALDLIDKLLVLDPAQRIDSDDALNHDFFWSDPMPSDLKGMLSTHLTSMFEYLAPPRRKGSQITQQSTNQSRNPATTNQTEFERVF
Sequence of CDK9/CyclinT1 (O60563 whole entry partner, species assumed): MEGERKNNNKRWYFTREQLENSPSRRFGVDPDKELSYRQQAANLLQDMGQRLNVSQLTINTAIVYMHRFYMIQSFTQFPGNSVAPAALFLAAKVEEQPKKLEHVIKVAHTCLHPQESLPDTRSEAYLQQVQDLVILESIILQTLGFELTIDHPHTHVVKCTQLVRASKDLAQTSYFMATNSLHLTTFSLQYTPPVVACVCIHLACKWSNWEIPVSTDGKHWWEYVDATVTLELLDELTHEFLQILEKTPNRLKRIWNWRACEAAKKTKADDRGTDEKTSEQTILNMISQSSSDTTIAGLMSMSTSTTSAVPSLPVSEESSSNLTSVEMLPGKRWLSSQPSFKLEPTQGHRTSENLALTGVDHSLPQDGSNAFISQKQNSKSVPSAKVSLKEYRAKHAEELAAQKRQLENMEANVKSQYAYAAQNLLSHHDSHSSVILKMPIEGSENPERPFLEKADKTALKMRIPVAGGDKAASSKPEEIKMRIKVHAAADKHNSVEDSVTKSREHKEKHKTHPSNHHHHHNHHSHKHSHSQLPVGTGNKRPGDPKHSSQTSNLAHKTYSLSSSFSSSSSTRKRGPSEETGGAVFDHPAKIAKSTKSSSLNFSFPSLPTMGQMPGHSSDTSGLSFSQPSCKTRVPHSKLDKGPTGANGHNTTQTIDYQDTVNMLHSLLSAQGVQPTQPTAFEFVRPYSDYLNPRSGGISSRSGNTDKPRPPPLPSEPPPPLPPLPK
T2 sequence (P50613 whole entry): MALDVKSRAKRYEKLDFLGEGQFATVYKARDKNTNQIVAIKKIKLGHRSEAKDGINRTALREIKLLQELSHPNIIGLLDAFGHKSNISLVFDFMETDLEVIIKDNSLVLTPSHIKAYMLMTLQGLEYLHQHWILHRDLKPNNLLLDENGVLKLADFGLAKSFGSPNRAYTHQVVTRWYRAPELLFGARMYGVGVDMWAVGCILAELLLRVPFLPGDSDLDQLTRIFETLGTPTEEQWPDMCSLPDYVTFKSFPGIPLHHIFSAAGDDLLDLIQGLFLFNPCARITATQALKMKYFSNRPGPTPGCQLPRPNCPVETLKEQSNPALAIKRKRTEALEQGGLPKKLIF
T2 sequence (P51946 whole entry partner): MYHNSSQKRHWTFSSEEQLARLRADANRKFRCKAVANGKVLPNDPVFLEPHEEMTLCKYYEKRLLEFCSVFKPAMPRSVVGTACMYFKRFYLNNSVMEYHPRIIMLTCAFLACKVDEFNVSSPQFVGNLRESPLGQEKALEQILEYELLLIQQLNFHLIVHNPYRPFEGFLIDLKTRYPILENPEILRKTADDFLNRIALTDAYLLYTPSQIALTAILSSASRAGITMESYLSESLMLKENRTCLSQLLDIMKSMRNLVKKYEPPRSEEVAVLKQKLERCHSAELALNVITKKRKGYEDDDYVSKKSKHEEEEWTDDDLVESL
T2 sequence (P51948 whole entry partner): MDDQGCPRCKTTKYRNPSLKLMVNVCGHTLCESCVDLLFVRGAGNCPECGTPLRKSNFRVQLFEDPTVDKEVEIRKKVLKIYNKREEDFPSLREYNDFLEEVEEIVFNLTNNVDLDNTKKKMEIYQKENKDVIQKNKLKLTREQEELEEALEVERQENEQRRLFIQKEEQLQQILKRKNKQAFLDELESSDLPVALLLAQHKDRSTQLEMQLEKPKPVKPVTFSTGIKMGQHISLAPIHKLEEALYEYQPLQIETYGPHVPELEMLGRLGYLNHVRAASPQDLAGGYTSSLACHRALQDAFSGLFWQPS
Sequence of CDK4/D1 (P11802 whole entry, species assumed): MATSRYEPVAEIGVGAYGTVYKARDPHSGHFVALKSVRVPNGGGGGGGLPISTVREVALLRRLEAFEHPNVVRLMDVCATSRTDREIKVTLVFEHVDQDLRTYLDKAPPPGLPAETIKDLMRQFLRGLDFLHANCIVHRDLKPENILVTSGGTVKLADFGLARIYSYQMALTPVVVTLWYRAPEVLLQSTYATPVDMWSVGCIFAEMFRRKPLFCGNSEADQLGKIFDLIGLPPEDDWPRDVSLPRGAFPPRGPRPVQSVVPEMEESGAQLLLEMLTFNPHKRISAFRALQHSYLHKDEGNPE
Sequence of CDK4/D1 (P24385 whole entry partner, species assumed): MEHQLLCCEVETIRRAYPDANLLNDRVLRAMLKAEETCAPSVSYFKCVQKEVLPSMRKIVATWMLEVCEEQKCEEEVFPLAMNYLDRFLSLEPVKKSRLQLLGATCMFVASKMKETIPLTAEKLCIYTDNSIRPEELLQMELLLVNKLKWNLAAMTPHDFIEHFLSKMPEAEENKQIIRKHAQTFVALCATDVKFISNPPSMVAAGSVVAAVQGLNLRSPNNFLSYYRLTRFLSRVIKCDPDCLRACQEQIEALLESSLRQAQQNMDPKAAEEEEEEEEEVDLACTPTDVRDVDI
Sequence of CDK6/D3 (Q00534 whole entry, species assumed): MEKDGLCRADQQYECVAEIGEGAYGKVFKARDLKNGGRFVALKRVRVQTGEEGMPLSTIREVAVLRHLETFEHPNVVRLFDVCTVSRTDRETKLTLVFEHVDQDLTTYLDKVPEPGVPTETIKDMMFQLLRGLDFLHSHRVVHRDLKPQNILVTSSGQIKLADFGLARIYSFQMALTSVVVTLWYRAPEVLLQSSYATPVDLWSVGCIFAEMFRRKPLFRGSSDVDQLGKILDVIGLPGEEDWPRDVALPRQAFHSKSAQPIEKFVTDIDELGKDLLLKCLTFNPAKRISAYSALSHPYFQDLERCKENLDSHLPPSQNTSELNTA
Sequence of CDK6/D3 (P30281 whole entry partner, species assumed): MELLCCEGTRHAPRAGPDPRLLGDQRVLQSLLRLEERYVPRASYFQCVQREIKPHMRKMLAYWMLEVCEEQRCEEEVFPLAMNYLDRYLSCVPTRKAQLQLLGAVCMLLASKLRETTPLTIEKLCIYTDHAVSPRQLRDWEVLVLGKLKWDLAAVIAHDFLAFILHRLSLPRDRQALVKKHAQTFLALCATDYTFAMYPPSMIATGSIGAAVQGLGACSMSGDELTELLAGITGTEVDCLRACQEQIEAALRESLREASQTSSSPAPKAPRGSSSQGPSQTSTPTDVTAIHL
T1 sequence (P06493 whole entry): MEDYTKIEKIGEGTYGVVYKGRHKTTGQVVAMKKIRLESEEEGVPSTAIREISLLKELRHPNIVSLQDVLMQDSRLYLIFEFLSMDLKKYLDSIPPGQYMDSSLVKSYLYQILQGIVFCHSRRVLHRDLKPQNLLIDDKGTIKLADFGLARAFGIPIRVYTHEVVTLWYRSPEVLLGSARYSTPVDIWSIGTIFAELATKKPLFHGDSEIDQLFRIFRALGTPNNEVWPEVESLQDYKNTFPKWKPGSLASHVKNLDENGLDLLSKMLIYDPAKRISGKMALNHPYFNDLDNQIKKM
T1 sequence (P14635 whole entry partner): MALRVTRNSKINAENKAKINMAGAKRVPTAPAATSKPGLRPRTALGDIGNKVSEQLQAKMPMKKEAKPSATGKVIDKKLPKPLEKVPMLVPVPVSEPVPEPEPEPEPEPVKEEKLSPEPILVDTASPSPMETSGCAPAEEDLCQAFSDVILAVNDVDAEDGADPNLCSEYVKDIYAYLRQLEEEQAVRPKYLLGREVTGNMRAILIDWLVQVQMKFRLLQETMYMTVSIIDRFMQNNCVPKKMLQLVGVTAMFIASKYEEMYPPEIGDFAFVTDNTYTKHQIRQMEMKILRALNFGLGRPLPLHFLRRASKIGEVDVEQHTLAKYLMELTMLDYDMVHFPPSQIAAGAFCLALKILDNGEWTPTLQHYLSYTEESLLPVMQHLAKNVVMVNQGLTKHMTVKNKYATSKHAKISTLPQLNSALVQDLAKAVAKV

Row | Structure (SMILES) | GI50 (U937) | Ki (CDK9/CyclinT1) | Ki (CDK6/D3) | GI50 (MV-4-11) | Ki (CDK1B [1]) | activity (CDK7HMAT1 [2]; 10 µM) | activity (CDK2E1; 1 µM) | remaining activity at 10 µM (CDK4/D1) | Ki (FLT3(D835Y)) | Ki (FLT3(ITD)) | further results
1 | CC(=O)N1CCN(c2ccc(Nc3nccc(-c4cnc5ccccn45)n3)nc2)CC1 [Cmpd 3, 1-(4-(6-((4-(Imidazo[1,2-a]pyridin-3-yl)pyrimidin-2-yl)amino)pyridin-3-yl)piperazin-1-yl)ethan-1-one] | 2850 nM | 519 nM | > 10000 nM | 20 nM | 3460 nM | – | – | – | – | – | activity (CDK2E1; 10 µM): 49%; Ki (CDK4/D1): 1970 nM
2 | c1ccn2c(-c3ccnc(Nc4ccc(N5CCOCC5)cn4)n3)cnc2c1 [Cmpd 4, 4-(Imidazo[1,2-a]pyridin-3-yl)-N-(5-morpholinopyridin-2-yl)pyrimidin-2-amine] | 3360 nM | – | 2900 nM | 38 nM | 1480 nM | 74% | 72% | 38% | – | – | remaining activity at 10 µM (CDK9/CyclinT1): 28%
3 | CC(=O)N1CCN(c2ccc(Nc3nccc(-c4cnc5ccc(C)cn45)n3)nc2)CC1 [Cmpd 13, 1-(4-(6-((4-(6-Methylimidazo[1,2-a]pyridin-3-yl)pyrimidin-2-yl)amino)pyridin-3-yl)piperazin-1-yl)ethan-1-one] | 1470 nM | 163 nM | 2400 nM | 6 nM | 2450 nM | 77% | 52% | – | – | – | Ki (CDK4/D1): 419 nM
4 | CC(=O)N1CCN(c2ccc(Nc3nccc(-c4cnc5ccc(-c6cnc(N7CCN(C)CC7)nc6)cn45)n3)nc2)CC1 [Cmpd 20, 1-(4-(6-((4-(6-(2-(4-Methylpiperazin-1-yl)pyrimidin-5-yl)imidazo[1,2-a]pyridin-3-yl)pyrimidin-2-yl)amino)pyridin-3-yl)piperazin-1-yl)ethan-1-one] | 4040 nM | – | – | 60 nM | – | 66% | 83% | 70% | 58 nM | 127 nM | remaining activity at 10 µM (CDK9/CyclinT1): 38%; remaining activity at 1 µM (FLT3(WT); compound at 1 μM, read-out: residual enzymatic activity (%) at 1 μM): 36%; remaining activity at 10 µM (CDK6/D3): 77%; activity (CDK1B [3]; 10 µM): 100%
5 | CC(=O)N1CCN(c2ccc(Nc3nccc(-c4cnc5ccc(-c6cn[nH]c6)cn45)n3)nc2)CC1 [Cmpd 24, 1-(4-(6-((4-(6-(1H-Pyrazol-4-yl)imidazo[1,2-a]pyridin-3-yl)pyrimidin-2-yl)amino)pyridin-3-yl)piperazin-1-yl)ethan-1-one] | 466 nM | 125 nM | – | 25 nM | – | – | 24% | 66% | – | – | Ki (CDK7HMAT1 [4]): 1190 nM; remaining activity at 10 µM (CDK6/D3): 61%; activity (CDK1B [3]; 10 µM): 35%
6 | CC(=O)N1CCN(c2ccc(Nc3nccc(-c4cnc5ccc(I)cn45)n3)nc2)CC1 [Cmpd 43, 1-(4-(6-((4-(6-Iodoimidazo[1,2-a]pyridin-3-yl)pyrimidin-2-yl)amino)pyridin-3-yl)piperazin-1-yl)ethan-1-one] | 3570 nM | 475 nM | – | 6 nM | – | – | 75% | – | 18 nM | 44 nM | activity (CDK7HMAT1 [2]; 1 µM): 75%; Ki (FLT3(WT)): 38 nM; remaining activity at 1 µM (CDK6/D3): 70%; remaining activity at 1 µM (CDK4/D1): 70%; activity (CDK1B [3]; 1 µM): 92%
7 | CS(=O)(=O)N1CCN(c2ccc(Nc3nccc(-c4cnc5ccc(Br)cn45)n3)nc2)CC1 [Cmpd 50, 4-(6-Bromoimidazo[1,2-a]pyridin-3-yl)-N-(5-(4-(methylsulfonyl)piperazin-1-yl)pyridin-2-yl)pyrimidin-2-amine] | 127 nM | – | – | 7 nM | – | – | 74% | – | 15 nM | 180 nM | activity (CDK7HMAT1 [2]; 1 µM): 57%; remaining activity at 1 µM (CDK9/CyclinT1; compound at 1 μM (values marked *), read-out: residual enzymatic activity (%) at 1 μM*): 48%; Ki (FLT3(WT)): 35 nM; remaining activity at 1 µM (CDK6/D3): 63%; remaining activity at 1 µM (CDK4/D1): 40%; activity (CDK1B [3]; 1 µM): 62%
